“Also recorded” adds a separate entry of the source.
Legend:
Type in all cases: biochemical
hSARM1 [1] = biological target: T1, hSARM1 (Homo sapiens, UniProt Q6SZW1); experiment: In vitro hSARM1 NADase activity, Resasurin assay
T1 construct: hSARM1w.t; (26ERL . . . GPT724) that was not mutated in E642, was also expressed and isolated; 6xHis (N); TEV cleavage site (N); made in house; host or cells: HEK293F suspension cells
T1 sequence (Q6SZW1 with tags, fused parts or gaps): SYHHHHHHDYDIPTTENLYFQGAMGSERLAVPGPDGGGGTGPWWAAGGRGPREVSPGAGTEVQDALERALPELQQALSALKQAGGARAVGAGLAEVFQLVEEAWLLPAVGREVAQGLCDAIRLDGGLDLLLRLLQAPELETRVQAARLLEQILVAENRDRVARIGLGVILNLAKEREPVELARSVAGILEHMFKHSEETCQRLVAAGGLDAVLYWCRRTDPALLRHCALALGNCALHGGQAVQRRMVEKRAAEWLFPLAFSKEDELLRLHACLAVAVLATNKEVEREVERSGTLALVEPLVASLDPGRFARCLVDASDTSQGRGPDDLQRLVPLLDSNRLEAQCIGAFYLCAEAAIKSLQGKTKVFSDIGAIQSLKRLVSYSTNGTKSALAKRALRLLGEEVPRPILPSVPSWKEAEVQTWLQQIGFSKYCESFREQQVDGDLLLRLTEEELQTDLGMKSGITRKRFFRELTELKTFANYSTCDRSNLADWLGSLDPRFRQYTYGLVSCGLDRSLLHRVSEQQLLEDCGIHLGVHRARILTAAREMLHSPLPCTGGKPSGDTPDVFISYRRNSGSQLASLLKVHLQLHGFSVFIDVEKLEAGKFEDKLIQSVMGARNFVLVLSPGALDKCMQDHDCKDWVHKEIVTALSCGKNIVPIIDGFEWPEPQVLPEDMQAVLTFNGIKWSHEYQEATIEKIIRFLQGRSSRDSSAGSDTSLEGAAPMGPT
Description: For quantitation of hSARM1 NADase activity and the inhibitory effect of selected compounds (FIG. 6F; FIG. 7A-7B), purified hSARM1w.t. and hSARM1E642Q proteins were first diluted to 400 nM concentration in 25 mM HEPES pH 7.5, 150 mM NaCl, and then mixed in 25° C. with 1 uM of NAD+(in the same buffer) with a 1:1 v/v ratio. All inhibitors were diluted with the same buffer, and the pH values were measured and if necessary titrated to 7.5. Inhibitors were pre-incubated for 20 min with hSARM1 in 25° C. before mixing with NAD+. At designated time points, reactions were quenched by placing the reaction tubes in 95° C. for 2 min. Measurement of NAD+ concentrations was made by a modified enzymatic coupled cycling assay (K. S. Kanamori et al., NAD. Bio Protoc 8, (2018)). The reaction mix, which includes 100 mM Phosphate buffer pH=8, 0.78% ethanol, 4 uM FMN (Riboflavin 5′-monophosphate sodium salt hydrate), 27.2 U/ml Alcohol dehydrogenase (SIGMA), 1.8 U/ml Diaphorase (SIGMA) and freshly dissolved (in DDW) 8 uM Resasurin (SIGMA), was added to each sample at 1:1 (v/v) ratio and then transferred to 384-well black plate (Corning). Fluorescent data was measured using a SynergyHI (BioTek) plate reader at 554-nm excitation and 593-nm emission wavelengths. Standard curve equation for calculation of NAD+ concentration was created for each assay from constant NAD+ concentrations.

hSARM1 [2] = biological target: T1, hSARM1; experiment: HPLC analysis of time dependent NAD+ consumption by hSARM1; details: 2 mM NAD+ versus 50 μM; porcine brain NADase control not inhibited
Description: Purified hSARM1w.t. was first diluted to 800 nM in 25 mM HEPES pH 7.5, 150 mM NaCl, and then mixed in 37° C. with different concentrations of NAD+(in the same buffer) in a 1:1 v/v ratio and incubated for 0, 5 and 30 min. 1:100 (v/v). BSA (NEB Inc. 20 mg/ml) was included, and reactions were stopped by heating at 95° C. for 2 minutes. Where specified, NMN (Sigma-Aldrich-N3501) was added in different concentrations. For control, NAD+ consumption was compared to a commercially available porcine brain NADase 0.025 units/ml (Sigma-Aldrich-N9879).
HPLC measurements were performed using a Merck Hitachi Elite LaChrom HPLC system equipped with an autosampler, UV detector and quaternary pump. HPLC traces were monitored at 260 nm and integrated using EZChrom Elite software. 10 μL of each sample were injected onto a Waters Spherisorb ODS1 C18 RP HPLC Column (5 μm particle size, 4.6 mm×150 mm ID). HPLC solvents are: A: 100% methanol; B: 120 mM sodium phosphate pH 6.0; C double-distilled water (DDW). The column was pre-equilibrated with B:C mixture ratio of 80:20. Chromatography was performed at room temperature with a flow rate of 1.5 ml/min. Each analysis cycle was 12 min long as follows (A:B:C, v/v): fixed 0:80:20 0-4 min; gradient to 20:80:0 4-6 min; fixed 20:80:0 from 6-9 min. gradient to 0:80:20 from 9-10 min; fixed 0:80:20 from 10-12 min. The NAD+ hydrolysis product ADPR was eluted at the isocratic stage of the chromatography while NAD+ elutes in the methanol gradient stage.

hSARM1 [3] = biological target: T1, hSARM1; experiment: eNAD-based NADase assay; details: 1:10 eNAD:NAD+; 400 nM enzyme; activity decreases at higher concentrations
Description: FIG. 7D: Rate of change in nucleotide fluorescence under steady-state conditions of eNAD hydrolysis by hSARM1. Reactions were initiated by mixing 400 nM enzyme with different concentrations of 1:10 eNAD+: NAD+(mol/mol) mixtures. Three repeats, standard deviation error bars.
Serial dilutions were made with 25 mM HEPES pH 7.5, 150 mM NaCl buffer and the final mix was transferred to 384-well black plate (Corning). Reaction started by the addition of hSARM1 to a final concentration 400 nM. Then, eNAD degradation rate was monitored by fluorescence reading (330-nm excitation and 405-nm emission wavelengths) of the plate using a SynergyHI (BioTek) in 25° C. for 3 hours. For each NAD+ concentration, a control reaction without SARM1 was measured and subtracted from the + hSARM1 reading and the slope of the linear area was calculated. For the final plot, average of slopes from 3 separate assays for each concentration was calculated.

Nc1ncnc2c1ncn2[C@@H]1O[C@H](COP(=O)(O)OP(=O)(O)OP(=O)(O)O)[C@@H](O)[C@H]1O [ATP]
inhibition of hSARM1 NADase activity (hSARM1 [1]; analyzed as for glycerol, FIG. 7A): inhibits the NADase activity of hSARM1 in a dose-dependent manner

NC(=O)c1ccc[n+]([C@@H]2O[C@H](COP(=O)([O-])OP(=O)(O)OC[C@H]3O[C@@H](n4cnc5c(N)ncnc54)[C@H](O)[C@@H]3O)[C@@H](O)[C@H]2O)c1 [NAD+, Nicotinamide adenine dinucleotide]
substrate inhibition of hSARM1 NAD+ hydrolysis (hSARM1 [2]): clearly inhibited; also recorded: tightly inhibited | NAD+ concentration at the highest rate of hydrolysis (hSARM1 [3]): 100 µM

OCC(O)CO [glycerol]
inhibition of hSARM1 NADase activity (hSARM1 [1]; 15% glycerol, measured 20 minutes after adding 0.5 μM NAD+): 72%

Reference: patent US20220241416A1, “METHODS FOR THE IDENTIFICATION OF SARM1 NADASE ACTIVITY INHIBITORS AND USES THEREOF” (Bar Ilan University, priority 2021, published 2022)
